Results on 23 molecules are retold here after PubChem BioAssay (NCI).

Test systems include EKVX NSCLC; 786-0 renal; K-562 leukemia; IGROV1 ovarian; LOX IMVI melanoma; SK-OV-3 ovarian; SN12C renal; NCI-H460 lung; HOP-92 NSCLC.
What all share (assay): DTP human tumour cell line panel, 48 h

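Following 48 hours of exposure in 96-well plates, responses at five concentrations were used to interpolate endpoints linearly. GI50: concentration for 50% inhibition of growth. TGI: concentration producing complete growth inhibition.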

For orientation: TGI means the concentration at which net growth stops. Lower therefore signals greater sensitivity of the cells. For `O=C(Cc1nc2ccccc2s1)Nc1cccc(C(F)(F)F)c1`, the TGI in the assay on EKVX NSCLC was 38.9 µM; in the assay with 786-0 renal, 27.2 µM; in the assay with K-562 leukemia it was 29.8 µM; in the assay on IGROV1 ovarian, 25.9 µM; with LOX IMVI melanoma it was 26.2 µM; with SK-OV-3 ovarian, 44.3 µM. The results for the TGI in the assay on SN12C renal and in the assay on NCI-H460 lung were 29.7 µM and 41.4 µM, respectively.

Consider `O=CC[C@H]1CCc2ccccc2C12CCC(=O)CC2`, for which the TGI in the assay with 786-0 renal, in the assay on K-562 leukemia, in the assay on IGROV1 ovarian, in the assay on LOX IMVI melanoma, in the assay with SK-OV-3 ovarian and with SN12C renal was more than 100 µM each time. The TGI with NCI-H460 lung and in the assay on HOP-92 NSCLC was more than 100 µM in each case.

For the molecule `COc1cc2c3c(c1OC)-c1c(ccc4c1OCO4)CC3(C#N)N(C(=O)c1ccccc1)CC2` (centres undefined), the TGI with EKVX NSCLC, in the assay on 786-0 renal, with K-562 leukemia, in the assay with IGROV1 ovarian, in the assay on LOX IMVI melanoma and with SK-OV-3 ovarian was more than 100 µM each time. In addition, the values for the TGI with SN12C renal, in the assay on NCI-H460 lung and in the assay with HOP-92 NSCLC were more than 100 µM, more than 100 µM and 77.9 µM, respectively.

For the molecule `O=[N+]([O-])c1cccc(C2ON2C2CCCCC2)c1` (centres undefined), the TGI is more than 100 µM in the assay on EKVX NSCLC; 31.2 µM in the assay with 786-0 renal; 60.3 µM in the assay with K-562 leukemia; 44.8 µM in the assay on IGROV1 ovarian; more than 100 µM in the assay on SK-OV-3 ovarian; 36 µM in the assay on SN12C renal. In addition, the total growth inhibition concentration (TGI) was 32.5 µM with NCI-H460 lung and 89.7 µM with HOP-92 NSCLC.

As to `COC(=O)CCC(=O)CC(=O)C(=O)Nc1c(Cl)cc([N+](=O)[O-])cc1Cl`, the TGI in the assay with EKVX NSCLC, with 786-0 renal, in the assay with K-562 leukemia, in the assay with IGROV1 ovarian, in the assay on LOX IMVI melanoma and in the assay with SK-OV-3 ovarian was more than 100 µM in each case. Further, the TGI with SN12C renal, in the assay on NCI-H460 lung and in the assay on HOP-92 NSCLC was more than 100 µM throughout.

In the case of `CCc1cccc(C(C)C)c1NC(=O)C(=O)C(CC(=O)Nc1ccc(Cl)c(Cl)c1)C(=O)OC` (centres undefined), the TGI in the assay on EKVX NSCLC, in the assay on 786-0 renal, in the assay on K-562 leukemia, in the assay on IGROV1 ovarian, in the assay on LOX IMVI melanoma and in the assay with SK-OV-3 ovarian was more than 100 µM throughout. The TGI in the assay with SN12C renal, with NCI-H460 lung and in the assay with HOP-92 NSCLC was more than 100 µM in each case.

For the molecule `C[C@]1(CO)CCC[C@@]2(C)C1CC[C@H]1CC3C[C@]12CC[C@]3(C)O` (some centres undefined), the TGI was more than 100 µM in the assay on 786-0 renal; more than 100 µM with K-562 leukemia; more than 100 µM in the assay on LOX IMVI melanoma; more than 100 µM in the assay on SK-OV-3 ovarian; more than 100 µM with SN12C renal; 36.8 µM with NCI-H460 lung. This molecule gave a TGI with HOP-92 NSCLC of more than 100 µM.

Regarding `Clc1ccc(C2SCc3nc4ccccc4n32)cc1Cl` (centres undefined), the TGI in the assay with EKVX NSCLC was 28.1 µM; in the assay with 786-0 renal, 27.3 µM; with K-562 leukemia, more than 100 µM; in the assay with IGROV1 ovarian it was 38.8 µM; in the assay on LOX IMVI melanoma, 25.7 µM; in the assay on SK-OV-3 ovarian, 36.2 µM. The results for the TGI in the assay on SN12C renal, with NCI-H460 lung and in the assay on HOP-92 NSCLC were 26 µM, 28.1 µM and 27.4 µM, respectively.

Take `S=c1cc(S)sc2c1c(=S)sc1nc3ccccn3c(=S)c12`: the TGI in the assay with EKVX NSCLC is more than 100 µM; in the assay on 786-0 renal, more than 100 µM; in the assay with K-562 leukemia, more than 100 µM; with LOX IMVI melanoma it was more than 100 µM; in the assay with SN12C renal, more than 100 µM; in the assay with NCI-H460 lung, 92.1 µM. The molecule also yielded a concentration for total growth inhibition (TGI) with HOP-92 NSCLC of more than 100 µM.

As to `Fc1ccccc1C1CC(c2ccc3ccccc3c2)=Nc2ccccc2S1` (centres undefined), the TGI in the assay on EKVX NSCLC, with 786-0 renal, in the assay on IGROV1 ovarian, in the assay with LOX IMVI melanoma, in the assay on SK-OV-3 ovarian and in the assay on SN12C renal was more than 100 µM in each case. The molecule further showed a concentration for total growth inhibition (TGI) in the assay with NCI-H460 lung of more than 100 µM.

`O=C(CC1(O)C(=O)Nc2c(Cl)cc(Cl)cc21)c1cccc2ccccc12` (centres undefined): the TGI in the assay with EKVX NSCLC was 29.7 µM; with 786-0 renal, 29.7 µM; with K-562 leukemia, 36.6 µM; with IGROV1 ovarian it was 36.9 µM; in the assay with LOX IMVI melanoma, 32.5 µM; in the assay on SK-OV-3 ovarian it was 30.2 µM. Further, the concentration for total growth inhibition (TGI) in the assay with SN12C renal was 34 µM; with NCI-H460 lung, 31.1 µM.

As to `CC(=O)c1ccc(NC(=O)C(=O)Nn2c(=S)[nH]c3ccccc3c2=O)cc1`, the TGI in the assay with EKVX NSCLC, in the assay on 786-0 renal, with K-562 leukemia, in the assay with IGROV1 ovarian, in the assay with LOX IMVI melanoma and with SK-OV-3 ovarian was more than 100 µM throughout. Moreover, the concentration for total growth inhibition (TGI) in the assay on SN12C renal, in the assay on NCI-H460 lung and in the assay with HOP-92 NSCLC was more than 100 µM each time.

Take `CCc1cccc(C(C)C)c1N1C(=O)C(=O)C(c2nc3ccccc3s2)C(=O)C1=O`: the TGI with EKVX NSCLC, in the assay on 786-0 renal, in the assay with K-562 leukemia, with IGROV1 ovarian, with LOX IMVI melanoma and in the assay on SK-OV-3 ovarian was more than 50 µM each time. Also, the concentration for total growth inhibition (TGI) in the assay on SN12C renal, in the assay on NCI-H460 lung and in the assay with HOP-92 NSCLC was more than 50 µM in each case.

With `CCCCCCCCCCCCCP(=O)(O)OCC`, the TGI with EKVX NSCLC, in the assay with 786-0 renal, in the assay on IGROV1 ovarian, with LOX IMVI melanoma, with SN12C renal and in the assay with NCI-H460 lung was more than 100 µM in each case. The molecule also came in with a TGI in the assay with HOP-92 NSCLC of more than 100 µM.

Consider `CC(C)(C)c1cc2c3c(c1)C(C(F)(F)F)(C(F)(F)F)O[Te]3(C)OC2(C(F)(F)F)C(F)(F)F`, for which the TGI in the assay with EKVX NSCLC, in the assay with 786-0 renal, in the assay on K-562 leukemia, with IGROV1 ovarian, in the assay with LOX IMVI melanoma and with SK-OV-3 ovarian was more than 100 µM throughout. In addition, the TGI in the assay with SN12C renal and with NCI-H460 lung was more than 100 µM in each case.

Consider `NCCCNCCCCN(CCCN)/[N+]([O-])=N\O`, for which the TGI in the assay on EKVX NSCLC, in the assay with 786-0 renal, with K-562 leukemia, with IGROV1 ovarian, in the assay on SN12C renal and with NCI-H460 lung was more than 100 µM throughout. The TGI in the assay on HOP-92 NSCLC was more than 100 µM.

Regarding `COCCCNC(=O)CC(=O)NCCCOC`, the TGI with EKVX NSCLC, in the assay on 786-0 renal, with K-562 leukemia, in the assay on IGROV1 ovarian, in the assay with SN12C renal and in the assay with NCI-H460 lung was more than 100 µM each time. This molecule also displayed a TGI in the assay with HOP-92 NSCLC of more than 100 µM.

With `CCC(=O)c1c(NOC2OC(COC(C)=O)C(OC(C)=O)C(OC(C)=O)C2OC(C)=O)nc(OC)n(C)c1=O` (centres undefined), the TGI in the assay with EKVX NSCLC, in the assay on 786-0 renal, in the assay on K-562 leukemia, in the assay on IGROV1 ovarian, with LOX IMVI melanoma and in the assay on SN12C renal was more than 100 µM throughout. For the same molecule, in the assay with NCI-H460 lung, the TGI is more than 100 µM.

On to `COC1OC(COCc2ccc(Cl)cc2)C(OCc2ccc(Cl)cc2)C1N=[N+]=[N-]` (centres undefined), for which the TGI was more than 100 µM in the assay with EKVX NSCLC; 16.8 µM in the assay on 786-0 renal; more than 100 µM in the assay on K-562 leukemia; more than 100 µM with IGROV1 ovarian; more than 100 µM with SK-OV-3 ovarian; more than 100 µM in the assay with SN12C renal. In addition, the TGI with NCI-H460 lung and in the assay on HOP-92 NSCLC was more than 100 µM each time.

As to `CS(=O)(=O)N(N(CCCl)S(=O)(=O)c1ccccc1)S(C)(=O)=O`, the TGI with EKVX NSCLC, with 786-0 renal, with K-562 leukemia, with SN12C renal, in the assay with NCI-H460 lung and with HOP-92 NSCLC was more than 100 µM in each case.

As for `O=[N+]([O-])c1cccc(-c2oc(C=Nc3ccccc3)c([N+](=O)[O-])c2-c2cccc([N+](=O)[O-])c2)c1`, the total growth inhibition concentration (TGI) in the assay with EKVX NSCLC, in the assay with 786-0 renal, in the assay with K-562 leukemia, in the assay with IGROV1 ovarian, in the assay with LOX IMVI melanoma and in the assay on SK-OV-3 ovarian was more than 100 µM throughout. In addition, the TGI in the assay on NCI-H460 lung and in the assay on HOP-92 NSCLC was more than 100 µM in each case.

The term GI50 denotes the concentration at which growth is held to half of that of the control. In the case of `C=C1CCC2C(C)(C)CCC[C@]2(C)[C@H]1CO` (some centres undefined), the GI50 in the assay on EKVX NSCLC is 53.5 µM; in the assay on 786-0 renal, 57.3 µM; with K-562 leukemia, 73.8 µM; with IGROV1 ovarian it was more than 100 µM; in the assay on LOX IMVI melanoma, 24.9 µM; with SN12C renal, 19.8 µM. Besides, the GI50 in the assay with NCI-H460 lung is 59.8 µM; in the assay on HOP-92 NSCLC it was 74.9 µM. Further, the TGI with EKVX NSCLC is more than 100 µM; in the assay on 786-0 renal, more than 100 µM; in the assay with K-562 leukemia, more than 100 µM; with IGROV1 ovarian, more than 100 µM; in the assay on LOX IMVI melanoma, 70.2 µM; in the assay on SN12C renal, 39.5 µM. Moreover, the TGI in the assay on NCI-H460 lung and in the assay on HOP-92 NSCLC was more than 100 µM in each case.

`CC1(C)Cc2cc(C(=O)O)c3c(c2C1=O)COCC3`: the TGI in the assay on EKVX NSCLC, with 786-0 renal, with K-562 leukemia, in the assay with IGROV1 ovarian, with LOX IMVI melanoma and in the assay with SK-OV-3 ovarian was more than 100 µM each time. Moreover, the TGI in the assay with SN12C renal and in the assay on NCI-H460 lung was more than 100 µM throughout.
